Experimental data published in article PMC8694143 (Microbiology Spectrum, 2021).
Values after ≈ are worked out from the molar mass of the structure shown. “Also recorded” adds a separate entry of the source. Non-standard residues stand in square brackets, D forms with d. Residues, ends and D or L forms follow the SMILES beside them. No end group written: not given here. *: point of attachment. 5FAM = O=C1OC2(c3ccc(O)cc3Oc3cc(O)ccc32)c2ccc(C(=O)*)cc21

How the values were obtained:
[1] = Circular dichroism spectroscopy; assay type: physicochemical; conditions: CD, 50% TFE (vol/vol), peptide 0.2 mg/mL, room temperature
Protocol: Peptides were dissolved in ultrapure water or 50% TFE (vol/vol) at a concentration of 0.2 mg/mL for spectroscopy. Spectra of samples in a 1 mm pathlength quartz cuvette were recorded from 180 to 260 nm at 0.5 nm steps using an Applied Photophysics Chirascan Plus CD spectrophotometer operating at room temperature.

MRSA ATCC 33592 = assay: MIC determination in broth; assay type: cell-based, Staphylococcus aureus; conditions: for MIC, S. aureus ATCC 33592 (SCCmec III): Table S5, STIP3 variants, highest conc. tested 100 μg/mL, 2-fold dilution series
Protocol: (§1) M. luteus ATCC 4698, S. aureus ATCC 29213, a panel of 7 MRSA (ATCC MP-2) strains, which includes ATCC BAA-41, BAA-42, BAA-44, BAA-1683, BAA-2094, BAA-2313, and 33592, and a series of additional bacterial isolates from human and veterinary cases were used in this study (Table S6). Bacterial strains were routinely grown in lysogeny broth (LB: 10 g/L tryptone, 5 g/L yeast extract, 10 g/L NaCl) at 30°C (M. luteus) or 37°C (Staphylococcus spp.) prior to use in specific experiments described below.
(§2) The MICs were measured for bioactive peptides identified from the initial screen. Cation-adjusted Mueller-Hinton (MH) broth was used as the growth medium for MIC determination experiments. Bacterial cultures were diluted to an OD of 5 × 10^−4 (∼10^5 CFU/mL) in 200 μL MH broth mixed with peptides in a 2-fold dilution series arrayed in 96-well plates. Plates were incubated without shaking at 30 or 37°C depending on the organism.

S. aureus ATCC 29213 = assay: MIC determination in broth; assay type: cell-based, Staphylococcus aureus; conditions: STIP3 variants, highest conc. tested 100 μg/mL; cation-adjusted MH broth, ~10^5 CFU/mL, 2-fold dilution series, 37°C, 16 h
Protocol: as §1, §2

SspA = SspA protease resuspended at 2 mg/mL in 100 mM HEPES (pH 7.8); conditions: 37°C, up to 5 h
M. luteus ATCC 4698 = assay: MIC determination in broth; assay type: cell-based, Micrococcus luteus; conditions: cation-adjusted MH broth, ~10^5 CFU/mL, 30°C, 48 h
Protocol: as §1, §2

MRSA ATCC BAA-44 = assay: MIC determination in broth; assay type: cell-based, Staphylococcus aureus; conditions: STIP3 variants, highest conc. tested 100 μg/mL; cation-adjusted MH broth, ~10^5 CFU/mL, 2-fold dilution series, 37°C, 16 h
Protocol: as §1, §2

MRSA ATCC BAA-2313 = assay: MIC determination in broth; assay type: cell-based, Staphylococcus aureus; conditions: STIP3 variants, highest conc. tested 100 μg/mL; cation-adjusted MH broth, ~10^5 CFU/mL, 2-fold dilution series, 37°C, 16 h
Protocol: as §1, §2

MRSA ATCC BAA-42 = assay: MIC determination in broth; assay type: cell-based, Staphylococcus aureus; conditions: STIP3 variants, highest conc. tested 100 μg/mL; cation-adjusted MH broth, ~10^5 CFU/mL, 2-fold dilution series, 37°C, 16 h
Protocol: as §1, §2

MRSA ATCC BAA-41 = assay: MIC determination in broth; assay type: cell-based, Staphylococcus aureus; conditions: STIP3 variants, highest conc. tested 100 μg/mL; cation-adjusted MH broth, ~10^5 CFU/mL, 2-fold dilution series, 37°C, 16 h
Protocol: as §1, §2

MRSA ATCC BAA-2094 = assay: MIC determination in broth; assay type: cell-based, Staphylococcus aureus; conditions: STIP3 variants, highest conc. tested 100 μg/mL; cation-adjusted MH broth, ~10^5 CFU/mL, 2-fold dilution series, 37°C, 16 h
Protocol: as §1, §2

MRSA ATCC BAA-1683 = assay: MIC determination in broth; assay type: cell-based, Staphylococcus aureus; conditions: STIP3 variants, highest conc. tested 100 μg/mL; cation-adjusted MH broth, ~10^5 CFU/mL, 2-fold dilution series, 37°C, 16 h
Protocol: as §1, §2

[2] = cation-adjusted MH broth, ~10^5 CFU/mL, 37°C, 16 h

Row | Molecule | MIC, S. aureus ATCC 33592 (SCCmec III) (MRSA ATCC 33592; [2]) | MIC, S. aureus ATCC 29213 (S. aureus ATCC 29213) | MIC, S. aureus ATCC BAA 44 (SCCmec I) (MRSA ATCC BAA-44) | MIC, S. aureus ATCC BAA 2313 (SCCmec XI) (MRSA ATCC BAA-2313) | MIC, S. aureus ATCC BAA 42 (SCCmec VI) (MRSA ATCC BAA-42) | MIC, S. aureus ATCC BAA 41 (SCCmec II) (MRSA ATCC BAA-41) | MIC, S. aureus ATCC BAA 2094 (SCCmec V) (MRSA ATCC BAA-2094) | MIC, S. aureus ATCC BAA 1683 (SCCmec IV) (MRSA ATCC BAA-1683) | other results
1 | CC[C@@H](C)[C@@H](NC(=O)[C@@H](Cc1c[nH]c2ccccc12)NC(=O)[C@@H](CCCCN)NC(=O)[C@H](NC(=O)[C@@H](CC(C)C)NC(=O)CNC(=O)CNC(=O)[C@H](NC(=O)[C@H](NC(=O)c1ccc2c(c1)C(=O)OC21c2ccc(O)cc2Oc2cc(O)ccc21)[C@H](C)O)C(C)C)C(C)C)C(=O)N[C@H](CC(C)C)C(=O)N[C@H](CCCCN)C(=O)N[C@@H](C(=O)N[C@@H](C(=O)N[C@H](CCCCN)C(=O)N[C@H](CCCCN)C(=O)N[C@H](Cc1ccccc1)C(=O)N[C@H](C)C(N)=O)C(C)C)[C@H](C)O [FAM-D-STIP3-29] (5FAM-[dT][dV]GG[dL][dV][dK][dW][dI][dL][dK][dT][dV][dK][dK][dF][dA]-NH2; C-terminus assumed) | – | – | – | – | – | – | – | – | α-Helical content (%) [1]: 55%
2 | CC[C@H](C)[C@H](NC(=O)[C@H](Cc1c[nH]c2ccccc12)NC(=O)[C@H](CCCCN)NC(=O)[C@@H](NC(=O)[C@H](CC(C)C)NC(=O)CNC(=O)CNC(=O)[C@@H](NC(=O)[C@@H](NC(=O)c1ccc2c(c1)C(=O)OC21c2ccc(O)cc2Oc2cc(O)ccc21)[C@@H](C)O)C(C)C)C(C)C)C(=O)N[C@@H](CC(C)C)C(=O)N[C@@H](CCCCN)C(=O)N[C@H](C(=O)N[C@H](C(=O)N[C@@H](CCCCN)C(=O)N[C@@H](CCCCN)C(=O)N[C@@H](Cc1ccccc1)C(=O)N[C@@H](C)C(N)=O)C(C)C)[C@@H](C)O [FAM-L-STIP3-29] (5FAM-TVGGLVKWILKTVKKFA-NH2; C-terminus assumed) | – | – | – | – | – | – | – | – | α-Helical content (%) [1]: 72%
3 | CC[C@H](C)[C@H](NC(=O)[C@H](Cc1c[nH]c2ccccc12)NC(=O)[C@H](CCCCN)NC(=O)[C@@H](NC(=O)[C@H](CC(C)C)NC(=O)CNC(=O)CNC(=O)[C@@H](NC(=O)[C@@H](N)[C@@H](C)O)C(C)C)C(C)C)C(=O)N[C@@H](CC(C)C)C(=O)N[C@H](CCCCN)C(=O)N[C@H](C(=O)N[C@H](C(=O)N[C@@H](CCCCN)C(=O)N[C@@H](CCCCN)C(=O)N[C@@H](Cc1ccccc1)C(=O)N[C@@H](C)C(N)=O)C(C)C)[C@@H](C)O [STIP3-29-D1] (H-TVGGLVKWIL[dK]TVKKFA-NH2; N-terminus assumed) | 25 µg/mL (≈ 13.2 µM) | 12.5 µg/mL (≈ 6.62 µM) | – | – | – | – | – | – | α-Helical content (%) [1]: 51%; Increase of the MIC relative to STIP3-29 (MRSA ATCC 33592; D-Lys substituted variants): 4 fold; MIC (μg/mL) for MRSA ATCC 33592 (MRSA ATCC 33592; Table 1 and text, cation-adjusted MH broth, ~10^5 CFU/mL, 37°C, 16 h): 25 µg/mL
4 | MTKDIVETVGGLVKWILDTVKKFA | – | – | – | – | – | – | – | – | fragment found (SspA): TVGGLVKWILDTVKKFA; also recorded: TVGGLVKWILD; also recorded: TVKKFA; also recorded: MTKDIVE
5 | TAGGLVKWILDTVKKFA [V2A] | – | – | – | – | – | – | – | – | MIC, M. luteus (M. luteus ATCC 4698): 50 µg/mL
6 | TVGGAVKWILDTVKKFA [L5A] | – | – | – | – | – | – | – | – | MIC, M. luteus (M. luteus ATCC 4698): 100 µg/mL
7 | TVGGLAKWILDTVKKFA [V6A] | – | – | – | – | – | – | – | – | MIC, M. luteus (M. luteus ATCC 4698): 50 µg/mL
8 | TVGGLVKAILDTVKKFA [W8A] | – | – | – | – | – | – | – | – | MIC, M. luteus (M. luteus ATCC 4698): 100 µg/mL
9 | TVKGLVKWILATVKKFA [STIP3-16, rationally designed STIP3-1 variant] | 50 µg/mL | 100 µg/mL | 100 µg/mL | 100 µg/mL | 50 µg/mL | 50 µg/mL | 100 µg/mL | > (The > symbol indicates that no inhibition was observed at 100 μg/mL for the STIP3 variants) | –
10 | TVKGLVKWILNVVKKFA [STIP3-14, rationally designed STIP3-1 variant] | 12.5 µg/mL | 25 µg/mL | 25 µg/mL | 12.5 µg/mL | 25 µg/mL | 25 µg/mL | 50 µg/mL | 25 µg/mL | –
11 | TVKGLVKWILNVVKKFA-NH2 [STIP3-30, rationally designed STIP3-1 variant, C-terminal amide] | 12.5 µg/mL | 12.5 µg/mL | 12.5 µg/mL | 25 µg/mL | 25 µg/mL | 25 µg/mL | 25 µg/mL | 12.5 µg/mL | –
12 | TVKKLVKWILKTVKKFA [STIP3-18, rationally designed STIP3-1 variant] | 100 µg/mL | 100 µg/mL | 100 µg/mL | > (The > symbol indicates that no inhibition was observed at 100 μg/mL for the STIP3 variants) | > (The > symbol indicates that no inhibition was observed at 100 μg/mL for the STIP3 variants) | 100 µg/mL | 100 µg/mL | > (The > symbol indicates that no inhibition was observed at 100 μg/mL for the STIP3 variants) | –
13 | TVKVLVKWILKVVAKFA [STIP3-26, rationally designed STIP3-1 variant] | > (The > symbol indicates that no inhibition was observed at 100 μg/mL for the STIP3 variants) | > (The > symbol indicates that no inhibition was observed at 100 μg/mL for the STIP3 variants) | > (The > symbol indicates that no inhibition was observed at 100 μg/mL for the STIP3 variants) | > (The > symbol indicates that no inhibition was observed at 100 μg/mL for the STIP3 variants) | > (The > symbol indicates that no inhibition was observed at 100 μg/mL for the STIP3 variants) | > (The > symbol indicates that no inhibition was observed at 100 μg/mL for the STIP3 variants) | > (The > symbol indicates that no inhibition was observed at 100 μg/mL for the STIP3 variants) | > (The > symbol indicates that no inhibition was observed at 100 μg/mL for the STIP3 variants) | –
14 | TVRALVKWILRTVAKFA [STIP3-20, rationally designed STIP3-1 variant] | 25 µg/mL | 25 µg/mL | 25 µg/mL | 50 µg/mL | 25 µg/mL | 12.5 µg/mL | 25 µg/mL | 25 µg/mL | –
15 | TVRALVRWILRTVARFA [STIP3-23, rationally designed STIP3-1 variant] | 25 µg/mL | 25 µg/mL | 25 µg/mL | 25 µg/mL | 50 µg/mL | 6.25 µg/mL | 50 µg/mL | 25 µg/mL | –
16 | TVXALVXWILXTVAXFA [STIP3-22, rationally designed STIP3-1 variant with L-ornithine] | 25 µg/mL | 25 µg/mL | 25 µg/mL | 100 µg/mL | 25 µg/mL | 25 µg/mL | 25 µg/mL | 25 µg/mL | –
17 | f-MTKDIVETVGGLVKWILDTVKKFA | – | – | – | – | – | – | – | – | not cleaved (SspA): no SspA cleavage was observed
